Measured values taken from patent US11813305B2, “Endoplasmic reticulum stress as a predictive tool in cancer therapy and a combination therapy for the treatment of cancer” (IMMUNE SYSTEM KEY LTD., priority 2016, dated 2023).
Square brackets hold non-standard residues; d marks the D form. Peptide text beside a SMILES is read from it.

Columns and labels:
[1] = Safety and tolerability (adverse events, DLT, MTD), phase I study; assay type: in vivo, human
Excerpt: The present clinical study is a formal open label phase I dose escalation study. The primary objective was to determine the maximum tolerated dose (MTD) and safety profile of dTCApFs. Assessments included drug exposure, adverse events (AEs; graded according to the Common Terminology Criteria for Adverse Events (CTCAE), and characterization of dose-limiting toxicities (DLTs). Other objectives included assessment of serum levels of angiogenic factors after dTCApFs administration, pharmacokinetics (PK) and pharmacodynamics (PD) analyses, as well as assessment of receptor staining and tumor response. […]
Subjects with evaluable or measurable disease are assessed according to the response evaluation criteria in solid tumors (RECIST) version 1.1 every 2 cycles, where a cycle is defined as 4 weeks of treatment with three administrations per week. Tumor lesion measurements and changes from baseline are summarized by cycle and dose cohort.

[2] = test system: healthy human peripheral immune cells; assay type: cell-based; conditions: data not shown
Excerpt: Therefore, without wishing to be bound by theory, dTCApFs appears to selectively affect cancer cells.

CC(C)C[C@@H](NC(=O)[C@H](NC(=O)[C@@H](CO)NC(=O)[C@H]1CCCN1C(=O)[C@@H](CC(C)C)NC(=O)[C@@H](Cc1ccccc1)NC(=O)[C@@H](Cc1ccccc1)NC(=O)[C@H](NC(=O)[C@@H](Cc1c[nH]c2ccccc12)NC(=O)[C@H](N)Cc1c[nH]c2ccccc12)[C@H](C)O)[C@H](C)O)C(=O)N[C@H](Cc1c[nH]c2ccccc12)C(=O)N[C@H](CCC(=O)O)C(=O)N[C@H](CCCNC(=N)N)C(=O)N[C@H](CCCCN)C(=O)O [dTCApFs, Trp Trp Thr Phe Phe Leu Pro Ser Thr Leu Trp Glu Arg Lys] (H-[dW][dW][dT][dF][dF][dL][dP][dS][dT][dL][dW][dE][dR][dK]-OH; N-terminus and C-terminus assumed)
Adverse event Grade 2: Pain, leg ([1]; 24 mg/m^2, n = 3): 0
Adverse event Grade 2: Pain, upper back ([1]; 24 mg/m^2, n = 3): 0
Adverse event Grade 2: Pruritus ([1]; 24 mg/m^2, n = 3): 0
Adverse event Grade 2: Urinary tract infection ([1]; 24 mg/m^2, n = 3): 0
Adverse event Grade 2: Urticaria ([1]; 24 mg/m^2, n = 3): 0
Adverse event Grade 3: Bilirubin increase ([1]; 24 mg/m^2, n = 3): 0
Adverse event Grade 3: Bowel obstruction ([1]; 24 mg/m^2, n = 3): 0
Adverse event Grade 3: Diarrhea ([1]; 24 mg/m^2, n = 3): 0
Adverse event Grade 3: GI hemorrhage ([1]; 24 mg/m^2, n = 3): 0
Adverse event Grade 3: Hypertension ([1]; 24 mg/m^2, n = 3): 1
Adverse event Grade 3: Increased INR ([1]; 24 mg/m^2, n = 3): 0
Adverse event Grade 4: Vomiting ([1]; 24 mg/m^2, n = 3): 0
Adverse event Grade 1: Abdominal pain ([1]; 48 mg/m^2, n = 3): 0
Adverse event Grade 1: Anemia ([1]; 48 mg/m^2, n = 3): 0
Adverse event Grade 1: Bowel obstruction ([1]; 48 mg/m^2, n = 3): 0
Adverse event Grade 1: Dehydration ([1]; 48 mg/m^2, n = 3): 0
Adverse event Grade 1: Diarrhea ([1]; 48 mg/m^2, n = 3): 0
Adverse event Grade 1: Fatigue ([1]; 48 mg/m^2, n = 3): 1
Adverse event Grade 1: GI hemorrhage ([1]; 48 mg/m^2, n = 3): 0
Adverse event Grade 1: Hypertension ([1]; 48 mg/m^2, n = 3): 0
Adverse event Grade 1: Increased INR ([1]; 48 mg/m^2, n = 3): 1
Adverse event Grade 1: Neuropathy ([1]; 48 mg/m^2, n = 3): 0
Adverse event Grade 1: Vomiting ([1]; 48 mg/m^2, n = 3): 0
Adverse event Grade 2: ALT increase ([1]; 48 mg/m^2, n = 3): 0
Adverse event Grade 2: AST increase ([1]; 48 mg/m^2, n = 3): 0
Adverse event Grade 2: Bilirubin increase ([1]; 48 mg/m^2, n = 3): 1
Adverse event Grade 2: Cough ([1]; 48 mg/m^2, n = 3): 0
Adverse event Grade 2: Liver dysfunction ([1]; 48 mg/m^2, n = 3): 0
Adverse event Grade 2: Pain, leg ([1]; 48 mg/m^2, n = 3): 0
Adverse event Grade 2: Pain, upper back ([1]; 48 mg/m^2, n = 3): 0
Adverse event Grade 2: Pruritus ([1]; 48 mg/m^2, n = 3): 0
Adverse event Grade 2: Urinary tract infection ([1]; 48 mg/m^2, n = 3): 0
Adverse event Grade 2: Urticaria ([1]; 48 mg/m^2, n = 3): 0
Adverse event Grade 3: Bilirubin increase ([1]; 48 mg/m^2, n = 3): 1
Adverse event Grade 3: Bowel obstruction ([1]; 48 mg/m^2, n = 3): 0
Adverse event Grade 3: Diarrhea ([1]; 48 mg/m^2, n = 3): 0
Adverse event Grade 3: GI hemorrhage ([1]; 48 mg/m^2, n = 3): 0
Adverse event Grade 3: Hypertension ([1]; 48 mg/m^2, n = 3): 0
Adverse event Grade 3: Increased INR ([1]; 48 mg/m^2, n = 3): 1
Adverse event Grade 4: Vomiting ([1]; 48 mg/m^2, n = 3): 0
Adverse event Grade 1: Abdominal pain ([1]; 96 mg/m^2, n = 5): 0
Adverse event Grade 1: Anemia ([1]; 96 mg/m^2, n = 5): 0
Adverse event Grade 1: Bowel obstruction ([1]; 96 mg/m^2, n = 5): 0
Adverse event Grade 1: Dehydration ([1]; 96 mg/m^2, n = 5): 1
Adverse event Grade 1: Diarrhea ([1]; 96 mg/m^2, n = 5): 2
Adverse event Grade 1: Fatigue ([1]; 96 mg/m^2, n = 5): 0
Adverse event Grade 1: GI hemorrhage ([1]; 96 mg/m^2, n = 5): 0
Adverse event Grade 1: Hypertension ([1]; 96 mg/m^2, n = 5): 1
Adverse event Grade 1: Increased INR ([1]; 96 mg/m^2, n = 5): 0
Adverse event Grade 1: Neuropathy ([1]; 96 mg/m^2, n = 5): 0
Adverse event Grade 1: Vomiting ([1]; 96 mg/m^2, n = 5): 1
Adverse event Grade 2: ALT increase ([1]; 96 mg/m^2, n = 5): 1
Adverse event Grade 2: AST increase ([1]; 96 mg/m^2, n = 5): 1
Adverse event Grade 2: Bilirubin increase ([1]; 96 mg/m^2, n = 5): 1
Adverse event Grade 2: Cough ([1]; 96 mg/m^2, n = 5): 0
Adverse event Grade 2: Liver dysfunction ([1]; 96 mg/m^2, n = 5): 1
Adverse event Grade 2: Pain, leg ([1]; 96 mg/m^2, n = 5): 0
Adverse event Grade 2: Pain, upper back ([1]; 96 mg/m^2, n = 5): 1
Adverse event Grade 2: Pruritus ([1]; 96 mg/m^2, n = 5): 1
Adverse event Grade 2: Urinary tract infection ([1]; 96 mg/m^2, n = 5): 0
Adverse event Grade 2: Urticaria ([1]; 96 mg/m^2, n = 5): 2
Adverse event Grade 3: Bilirubin increase ([1]; 96 mg/m^2, n = 5): 1
Adverse event Grade 3: Bowel obstruction ([1]; 96 mg/m^2, n = 5): 0
Adverse event Grade 3: Diarrhea ([1]; 96 mg/m^2, n = 5): 1
Adverse event Grade 3: GI hemorrhage ([1]; 96 mg/m^2, n = 5): 0
Adverse event Grade 3: Hypertension ([1]; 96 mg/m^2, n = 5): 2
Adverse event Grade 3: Increased INR ([1]; 96 mg/m^2, n = 5): 0
Adverse event Grade 4: Vomiting ([1]; 96 mg/m^2, n = 5): 1
relation of adverse events (AEs) to study drug ([1]; AEs of Table 4): None were related to study drug
grade 4 AE vomiting, number of patients ([1]; all dose groups): 1
dose-limiting toxicities (DLTs) ([1]; any patient up to cohort 5 (6-96 mg/m^2)): No dose-limiting toxicities (DLTs) were observed
MTD ([1]; doses of 6, 12, 24, 48, and 96 mg/m^2 i.v., 3 times/week): not reached
tolerability of treatment ([1]; overall, 17 patients): well-tolerated with no cumulative toxicity
cell death [2]: only minor cell death occurred
